Experimental data: patent US20050209278A1, “Piperidinyl- and piperazinyl-sulfonylmethyl hydroxamic acids and their use as protease inhibitors” (priority 2002, published 2005)
Where a name gives a salt, the structure may show the parent alone. Read-outs that look alike come from different tables or passages of the source.

Columns and labels:
[1] = biological target: T1, MMP-13 (Homo sapiens, UniProt P45452); assay: In vitro MMP inhibition, Ki determination (fluorogenic substrate II); format: biochemical
T1 construct: made in house; host or cells: baculovirus / insect cells
Description: (§1) Several hydroxamic acids and salts thereof were analyzed in in vitro assays to determine their ability to inhibit the MMP cleavage of peptide substrates. […] and IC50 constants were calculated from the assayed hydroxamic acid-MMP interactions.
(§2) Human recombinant MMP-1, MMP-2, MMP-9, MMP-13, and MMP-14 were used in this assay. All enzymes were prepared in Assignee's laboratories following usual laboratory procedures. Protocols for the preparation and use of these enzymes are available in the scientific literature. See, e.g., Enzyme Nomenclature (Academic Press, San Diego, Calif., 1992) (and the citations therein). See also, Freije et al., “Molecular cloning and expression of collagenase-3, a novel human matrix metalloproteinase produced by breast carcinomas,” J Biol. Chem., 269(24), 16766-16773 (1994).
The MMP-13 was obtained as a proenzyme from a full-length cDNA clone using baculovirus, as described by V. A. Luckow, “Insect Cell Expression Technology,” Protein Engineering: Principles and Practice, pp. 183-218 (edited by J. L. Cleland et al., Wiley-Liss, Inc., 1996). The expressed proenzyme was first purified over a heparin agarose column, and then over a chelating zinc chloride column. The proenzyme was then activated by APMA for use in the assay. […] See also, O'Reilly et al, Baculovirus Expression Vectors: A Laboratory Manual (W.H. Freeman and Co., New York, N.Y., 1992). See also, King et al., The Baculovirus Expression System: A Laboratory Guide (Chapman & Hall, London, England, 1992).
(§3) All MMPs were activated using 4-aminophenylmercuric acetate (“APMA”, Sigma Chemical, St. Louis, Mo.) or trypsin. MMP-9 also was activated using human recombinant MMP-3 (purified in Assignee's laboratory following standard cloning and purification techniques).
(§4) Two fluorogenic, methoxycoumarin-containing polypeptide substrates were used in the MMP inhibition assays: [drawing 427] Here, “Dpa” is 3-(2,4-dinitrophenyl)-L-2,3-diaminopropionyl group, and “MCA” is 7-methoxycoumarin-4-yl acetyl. Substrate (I) was purchased from Baychem (Redwood City, Calif.), and substrate II was prepared Assignee's laboratory. Substrate I was used in the IC50 determination assays, while substrate II was used in the Ki determination assays. In the absence of MMP inhibitory activity, either substrate is cleaved at the Gly-Leu peptide bond. This cleavage separates the highly fluorogenic peptide from the 2,4-dinitrophenyl quencher, thus resulting in increase of fluorescent intensity.
(§5) The stock solutions of the assayed hydroxamic acids (or salts thereof) were prepared in 1% dimethyl sulfoxide (DMSO). These stock solutions were diluted in Buffer A (100 mM Tris-HCl, 100 mM NaCl, 10 mM CaCl2, 0.05% polyoxyethylene 23 lauryl ether, pH 7.5) to obtain solutions with different hydroxamic acid concentrations, i.e., assay solutions with different concentrations of the assayed MMP inhibitory compound. The experiment controls contained the same amount of Buffer A/DMSO as the assayed sample, but contained no hydroxamic acid (or salt thereof).
(§6) The assays from which the Ki determinations were made were performed as follows. The assayed hydroxamic acid samples were incubated in separate wells of untreated white polystyrene plates (Nunc Nalgene International, Rochester, N.Y.), and analyzed on a Tecan SpectraFlour Plus plate reader. The excitation wavelength was 330 nm, and the emission wavelength—420 nm. All samples (assayed hydroxamic acids and controls) were incubated in separate plate wells at room temperature for 1 hr in the presence of 4 μM of MMP substrate (II). In the absence of MMP inhibitory activity, substrate II was cleaved at the Gly-Leu bond resulting in an increase of relative fluorescence. Inhibition was observed as a reduced rate of this increase in relative fluorescence. The various hydroxamic acids were analyzed using a single low enzyme concentration with a single substrate concentration fixed at or below the Km.

[2] = biological target: T2, MMP-1 (Homo sapiens, UniProt P03956); assay: as above; format: biochemical; conditions: read-out: MMP-1 Ki
T2 construct: made in house; host or cells: MMP-1-transfected HT-1080 cells (spent media)
T2 sequence (P03956 100-469): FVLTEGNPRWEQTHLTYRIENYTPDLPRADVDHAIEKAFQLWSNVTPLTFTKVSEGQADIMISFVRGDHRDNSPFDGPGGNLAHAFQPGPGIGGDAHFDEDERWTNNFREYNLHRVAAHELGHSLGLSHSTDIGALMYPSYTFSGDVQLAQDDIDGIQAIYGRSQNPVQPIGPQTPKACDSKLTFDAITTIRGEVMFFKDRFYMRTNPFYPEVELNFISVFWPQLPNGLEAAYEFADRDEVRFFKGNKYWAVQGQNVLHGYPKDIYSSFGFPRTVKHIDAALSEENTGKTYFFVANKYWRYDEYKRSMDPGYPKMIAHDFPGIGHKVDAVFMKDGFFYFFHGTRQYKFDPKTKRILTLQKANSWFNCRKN
Description: as §1, §2
The MMP-1 proenzyme was purified from the spent media of MMP-1-transfected HT-1080 cells provided by Dr. Harold Welgus of Washington University (St. Louis, Mo.). The protein was purified on a zinc chelating column.
as §3, §4, §5
as §6, with “Km. This protocol is a modification of method by Knight et al., FEBS Lett., 296(3), 263-266 (1992). Apparent inhibitory constants were determined by non-linear regression of reaction velocity as a function of inhibitor and enzyme concentration using Morrison's equation, as described by Kuzmic, Anal. Biochem. 286, 45-50 (2000). […] Since the substrate concentration was chosen to be at or below the Km, the apparent Ki's from this analysis were reported as Ki's without correction for the influence of substrate.” for “Km.”

[3] = human recombinant enzyme, 4 μM substrate II, room temperature, 1 hr, read-out: MMP-13 Ki
[4] = human recombinant enzyme, 4 μM substrate II, room temperature, 1 hr
[5] = value not in parenthesis, read-out: MMP-13 Ki

Row | SMILES | Ki [1, 3] [nM] | Ki [2, 4] [nM] | Ki [1, 5] [nM] | Ki ([2]; value not in parenthesis) [nM] | Ki ([1]; MMP-13 Ki, human recombinant enzyme, 4 μM substrate II, room temperature, 1 hr) [nM]
1 | CCCCc1ccc(C2CCN(S(=O)(=O)C3(C(=O)NO)CCOCC3)CC2)s1 [Example 19, 4-{[4-(5-butylthien-2-yl)piperidin-1-yl]sulfonyl}-N-hydroxytetrahydro-2H-pyran-4-carboxamide] | 5.47 | > 10000 | – | – | –
2 | CCCCOc1ccc(N2CCN(S(=O)(=O)C3(C(=O)NO)CCN(C(=O)N4CCOCC4)CC3)CC2)cc1 [Example 124] | – | – | 0.121 | > 10000 | –
3 | COCCN1CCC(C(=O)NO)(S(=O)(=O)N2CCN(c3ccc(OCCCC(F)(F)F)cc3)CC2)CC1 [Example 9, N-hydroxy-1-(2-methoxyethyl)-4-({4-[4-(4,4,4-trifluorobutoxy)phenyl]piperazin-1-yl}sulfonyl)piperidine-4-carboxamide Dihydrochloride] | 0.05 | > 10000 | – | – | –
4 | COc1ccc(N2CCN(S(=O)(=O)C3(C(=O)NO)CCOCC3)CC2)nc1 [Example 109] | – | – | 472 | > 10000 | –
5 | CCCCOc1ccc(N2CCN(S(=O)(=O)C3(C(=O)NO)CCN(C(=S)N(C)C)CC3)CC2)cc1 [Example 123] | – | – | 0.74 | > 10000 | –
6 | O=C(NO)C1(S(=O)(=O)N2CCN(c3ncc(Br)cn3)CC2)CCOCC1 [Example 104] | – | – | 3.55 | 835 | –
7 | CCCCOc1ccc(N2CCN(S(=O)(=O)C3(C(=O)NO)CCN(c4ncc(CC)cn4)CC3)CC2)cc1 [Example 155] | – | – | 3.36 | > 10000 | –
8 | Cc1ccc(N2CCN(S(=O)(=O)C3(C(=O)NO)CCOCC3)CC2)nc1 [Example 138] | – | – | 1.15 | 1380 | –
9 | C=CCCOC(=O)N1CCC(C(=O)NO)(S(=O)(=O)N2CCN(c3ccc(OCCCC)cc3)CC2)CC1 [Example 101] | – | – | 0.92 | > 10000 | –
10 | CCCCOc1ccc(N2CCN(S(=O)(=O)C3(C(=O)NO)CCN(c4cnccn4)CC3)CC2)cc1 [Example 140] | – | – | 0.446 | > 10000 | –
11 | CCCCc1cnc(N2CCN(S(=O)(=O)C3(C(=O)NO)CCOCC3)CC2)cn1 [Example 1, 4-{[4-(5-butylpyrazin-2-yl)piperazin-1-yl]sulfonyl}-N-hydroxytetrahydro-2H-pyran-4-carboxamide Dihydrochloride] | – | > 10000 | – | – | 1.82
12 | O=C(NO)C1(S(=O)(=O)N2CCN(c3ccc(-c4ccc(Cl)cc4)cn3)CC2)CCOCC1 [Example 60] | – | – | 0.32 | 555 | –
13 | O=C(NO)C1(S(=O)(=O)N2CCN(c3ncccn3)CC2)CCOCC1 [Example 106] | – | – | 27.2 | 1470 | –
14 | CCCCOc1ccc(N2CCN(S(=O)(=O)C3(C(=O)NO)CCN(CCOC)CC3)CC2)cc1F [Example 11, 4-[[4-(4-butoxy-3-fluorophenyl)-1-piperazinyl]sulfonyl]-N-hydroxy-1-(2-methoxyethyl)-4-piperidinecarboxamide, Dihydrochloride] | 0.67 | > 10000 | – | – | –
15 | CCCCCCCCCc1cnc(N2CCN(S(=O)(=O)C3(C(=O)NO)CCOCC3)CC2)nc1 [Example 110] | – | – | 3.23 | > 10000 | –
16 | O=C(NO)C1(S(=O)(=O)N2CCN(c3ccc(OCCCC(F)(F)F)cc3)CC2)CCOCC1 [Example 7, N-hydroxy-4-({4-[4-(4,4,4-trifluorobutoxy)phenyl]piperazin-1-yl}sulfonyl)tetrahydro-2H-pyran-4-carboxamide Hydrochloride] | 0.17 | > 10000 | – | – | –
17 | CCCCCc1ccc(N2CCN(S(=O)(=O)C3(C(=O)NO)CCN(c4ccc(C)cc4)CC3)CC2)cc1 [Example 147] | – | – | 7.35 | > 10000 | –

Now from value to compound:

Row | Ki [1, 3] [nM] | Ki [2, 4] [nM] | Ki [1, 5] [nM] | Ki ([2]; value not in parenthesis) [nM] | Ki ([1]; MMP-13 Ki, human recombinant enzyme, 4 μM substrate II, room temperature, 1 hr) [nM] | SMILES
18 | 0.77 | > 10000 | – | – | – | O=C(NO)C1(S(=O)(=O)N2CCN(c3ccc(OCC(F)(F)F)cc3)CC2)CCOCC1 [Example 2, N-hydroxy-4-({4-[4-(2,2,2-trifluoroethoxy)phenyl]piperazin-1-yl}sulfonyl)tetrahydro-2H-pyran-4-carboxamide Hydrochloride]
19 | 0.54 | > 10000 | – | – | – | CCCCc1ccc(C2CCN(S(=O)(=O)C3(C(=O)NO)CCN(C4CC4)CC3)CC2)nc1 [Example 24, 4-{[4-(5-butylpyridin-2-yl)piperidin-1-yl]sulfonyl}-1-cyclopropyl-N-hydroxypiperidine-4-carboxamide Hydrochloride]
20 | – | – | 0.19 | > 10000 | – | COCCN1CCC(C(=O)NO)(S(=O)(=O)N2CCN(c3ccc(OCCCC(F)(F)F)cc3F)CC2)CC1 [Example 102]
21 | – | – | 7.06 | > 10000 | – | CCCCOc1ccc(N2CCN(S(=O)(=O)C3(C(=O)NO)CCN4CCCC4C3)CC2)cc1F (stereo not shown) [Example 126]
22 | 0.444 | 7350 | – | – | – | O=C(NO)C1(S(=O)(=O)N2CCC(c3ccc(CCC(F)(F)C(F)(F)F)cc3)CC2)CCOCC1 [Example 18, N-hydroxy-4-({4-[4-(3,3,4,4,4-pentafluorobutyl)phenyl]piperidin-1-yl}sulfonyl)tetrahydro-2H-pyran-4-carboxamide]
23 | – | – | 0.099 | > 10000 | – | O=C(NO)C1(S(=O)(=O)N2CCN(c3ccc(OCCCC(F)(F)F)cc3)CC2)CCN(C2CC2)CC1 [Example 153]
24 | – | – | 1.17 | > 10000 | – | CCCCOc1ccc(N2CCN(S(=O)(=O)C3(C(=O)NO)CCN(C(=O)OCC(F)(F)F)CC3)CC2)cc1 [Example 115]
25 | 0.97 | > 10000 | – | – | – | O=C(NO)C1(S(=O)(=O)N2CCC(c3ccc(OCC(F)(F)F)cc3)CC2)CCN(C2CC2)CC1 [Example 25, 1-cyclopropyl-N-hydroxy-4-({4-[4-(2,2,2-trifluoroethoxy)phenyl]piperidin-1-yl}sulfonyl)piperidine-4-carboxamide Hydrochloride]
26 | – | – | 0.347 | > 10000 | – | CCCCOc1ccc(N2CCN(S(=O)(=O)C3(C(=O)NO)CCOCC3)CC2)cc1 [Example 145]
